Common to all, as to assay: growth of human tumour cells (NCI), 48 h
For assay [1], the system named is A498 renal.
The test system of assay [2] is A549 NSCLC.
The test system of assay [3] is BT-549 breast.
Assay [4] has as its system HCT-116 colon.
The subject of assay [5] is HS 578T breast.
Assay [6] deals with LOX IMVI melanoma.
Assay [7] relates to RXF 393 renal.
The test system of assay [8] is SR leukemia.
Assay [9] deals with T-47D breast.
Assay [10] concerns CCRF-CEM leukemia.

“And” between values parts separate entries of the source, which are not always exact repeats. Identical values can stand only once.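 Each compound was tested at five concentrations against cells in 96-well plates for 48 hours. GI50 marks 50% less growth. TGI denotes the concentration required for complete inhibition of growth.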

On to `CN(CCCCCCCCNc1ccnc2ccccc12)Cc1ccc(-c2ccc(-c3ccc(C#N)cc3)s2)cc1`, for which the GI50 was 1.22 µM in assay [1]; 1.01 µM in assay [2]; 1440 nM in assay [3]; 184 nM in assay [4]; 1750 nM in assay [5]; 164 nM in assay [6]. Also, the values for the GI50 in [7], in [8] and in assay [9] were 1130 nM, 83 nM and 881 nM, respectively. Besides, the TGI in assay [1] was found to be 2.6 µM; in assay [2], 2.94 µM; in assay [3], 3.2 µM; in assay [4], 0.537 µM; in assay [5], 3.86 µM; in assay [6], 0.31 µM. In addition, the values for the TGI in assay [7], in assay [8] and in assay [9] were 2.54 µM, 0.35 µM and 3.16 µM, respectively.

As for `COc1ccc(C2CC(c3ccc4ccccc4c3)=NN2c2nc(O)c(C3=c4cc(Cl)ccc4=NC3=O)s2)cc1` (configuration not stated), the GI50 was 0.0166 µM and < 0.005 µM in [1]; 0.0251 µM and < 0.005 µM in assay [2]; 49.9 nM and < 5 nM in assay [3]; 36.2 nM and < 5 nM in assay [10]; 33.8 nM and < 5 nM in [4]; 28.3 nM in assay [5]. The GI50 in assay [6] was 22.3 nM and < 5 nM; in assay [7], 18.6 nM and < 5 nM; in [8], 33.8 nM and < 5 nM; in assay [9] it was 22.3 nM and < 5 nM. Also, the TGI was 0.0419 µM and < 0.005 µM in [1]; 0.533 µM in assay [10]; 0.122 µM and 0.107 µM in assay [4]; 0.0973 µM in assay [5]; 0.0389 µM and < 0.005 µM in assay [7]; < 0.005 µM in assay [8].

`O=C1c2c(c3c4ccccc4n(CCCCCCN4CCOCC4)c3c3[nH]c4ccccc4c23)C(=O)N1O`: the GI50 was 9.15 µM in assay [1]; 39.8 µM in assay [2]; 17900 nM in assay [3]; 2250 nM in assay [10]; 1850 nM in assay [4]; 2070 nM in assay [5]. The GI50 was 210 nM in [6], 7610 nM in [7], 291 nM in assay [8] and 18700 nM in assay [9]. The TGI is 25.4 µM in assay [1]; > 100 µM in assay [2]; 46.9 µM in [3]; 8.35 µM in assay [10]; 3.86 µM in [4]; 6.61 µM in assay [5]. For the same molecule, the TGI in assay [6] was 0.736 µM; in assay [7], 25.9 µM; in assay [8] it was 1.08 µM; in assay [9], > 94.6 µM.

As to `O=C(CS(=O)c1nc2ccccc2nc1-c1ccccc1)Nc1ccc(Cl)cc1` (configuration not stated), the GI50 is 19 µM in assay [1]; 32.3 µM in [2]; 1330 nM in assay [3]; 23400 nM in assay [10]; 16000 nM in [4]; 17500 nM in assay [6]. Besides, the figures for the GI50 in assay [7], in assay [8] and in [9] were 30400 nM, 18700 nM and 32700 nM, respectively. Further, the TGI was 43 µM in [1]; > 100 µM in assay [2]; 53.1 µM in assay [3]; 56.8 µM in assay [10]; 33.1 µM in assay [4]; 6.88 µM in [5]. Further, the TGI is 33.6 µM in assay [6], 84.3 µM in assay [7], 47.6 µM in assay [8] and > 100 µM in assay [9].

As for `Cc1c(C(=O)/C=C/c2ccc(Cl)cc2)nnn1-c1ccnc2c(C(F)(F)F)cccc12`, the GI50 in [1] was > 100 µM; in [2], 23.7 µM; in assay [3], > 100000 nM; in [10] it was 15300 nM; in assay [4] it was 25600 nM; in assay [5], 64300 nM. Further, the GI50 in assay [6] is 23300 nM; in assay [7] it was 1050 nM; in assay [8] it was 8710 nM; in assay [9] it was > 100000 nM. The TGI in assay [1], in [2], in [3], in [10], in assay [4] and in [5] was > 100 µM each time. For the same molecule, the TGI is > 100 µM in assay [6], 34.1 µM in assay [7], 55.2 µM in assay [8] and > 100 µM in assay [9].

For `CCCCCCCCCCCCSC1=CC(=O)C=CC1=O`, the GI50 in assay [1] is 7.96 µM; in [2], 9.46 µM; in assay [3], 1340 nM; in [10], 143 nM; in assay [4] it was 6310 nM; in assay [5], 1960 nM. Moreover, the GI50 in assay [6] is 1250 nM; in assay [7], 2860 nM; in assay [8] it was 3580 nM; in [9], 893 nM. Further, the TGI in assay [1] was 24.3 µM; in [2] it was > 50 µM; in [3], 4.57 µM; in assay [10], 4.17 µM; in assay [4] it was > 43.3 µM; in assay [5] it was 21.8 µM. Further, the TGI in assay [6] stood at 4.3 µM; in assay [7], 19.3 µM; in assay [8] it was 29.1 µM; in [9], 3.58 µM.

For `O=C1/C=C/[C@@H](O)[C@@H]2C[C@@H](O)C[C@H]2/C=C/CCC[C@H](CCc2ccc(NC(=S)Nc3ccc4c(c3)C(=O)OC43c4ccc(O)cc4Oc4cc(O)ccc43)cc2)O1`, the GI50 in assay [1] was 0.141 µM; in [2], 0.448 µM; in [3], 451 nM; in assay [10], 426 nM; in [4], 523 nM; in assay [5], 305 nM. The GI50 in assay [6] was 244 nM; in [7] it was 266 nM; in assay [8] it was 517 nM; in [9], 1390 nM. For the same molecule, the TGI in [1] was 0.458 µM; in assay [2], > 100 µM; in assay [3] it was 73.7 µM; in assay [10], > 100 µM; in [4] it was 4.95 µM; in assay [5] it was > 100 µM. Moreover, the TGI in [7] was 0.736 µM; in assay [8], > 100 µM; in assay [9], 76 µM.

Source of the values: PubChem BioAssay (NCI).
